Assays:
[1] = test system: ischemia induced weight increase of the small intestine; test: inhibition of ischemia induced weight increase of a definite section in the small intestine of rats; assay type: in vivo; conditions: Rattus norvegicus, 25 mg/kg oral
Experimental: 2. […] The percentage of inhibition observed after administration of a 25 mg/kg oral dose of the compounds of the invention or of the reference compounds is shown in Table 5.

[2] = test system: rat brain homogenate (ferrous ion dependent lipid peroxidation); test: ferrous ion dependent lipid peroxidation inhibitory activity on rat brain homogenate (thiobarbituric acid reactive substances); assay type: biochemical; conditions: Fe2+ dependent lipid peroxidation, TBARS
Experimental: 1. The ferrous ion dependent lipid peroxidation inhibitory activity was measured on rat brain homogenate by using the method descibed by J. M. Braughler et al., [J. Biol. Chem. 262, 10438 (1987)] and J. A. Buege and S. D. […] The IC50 value is defined as the concentration of a test substance which reduces by 50% the amount of the thiobarbituric acid reactive substances (chiefly malondialdehyde) considered to be a characteristic parameter of lipid peroxidation.

acute brain injury = test: inhibition of acute brain injury of mice (improvement in the neurological state); assay type: in vivo; conditions: intravenous
Text: 1. […] 68, 456 (1988)]. The doses of the test compounds administered by the intravenous route and the percentage of improvement in the neurological state are summarized in Table 4.

rats = test: acute toxicity in rats; assay type: in vivo; conditions: 1000 mg/kg oral
acute toxicity in rats = assay type: in vivo; conditions: rat, in vivo, oral
[3] = test system: NADPH dependent lipid peroxidation; test: inhibition of the NADPH dependent lipid peroxidation; assay type: biochemical
Experimental: 3. Inhibiton of the NADPH dependent lipid peroxidation was measured according to T. J. Player and A. A. Horton [J. Neurochem. 37, 422 (1981)] and Z. Duniec [Biochem. Pharmacol. 32, 2283 (1983)]. The IC50 values (expressed in micromols) of some compounds of the invention, further those of the reference compounds determined in this test are given in Table 3.

[4] = test system: arachidonic acid (ferrous ion dependent peroxidation); test: inhibition of the ferrous ion dependent peroxidation of arachidonic acid; assay type: biochemical; conditions: Fe2+ dependent peroxidation of arachidonic acid
Experimental: 2. The inhibition of the ferrous ion dependent peroxidation of arachidonic acid was also measured by the method of J. M. Braughler et al. [J. Biol. Chem. 262, 10438 (1987)] and J. A. Buege and S. D. Aust [Methods in Enzymology 52, 302 (1978)]. The IC50 values (expressed in micromols) of some compounds of the invention, further those of the reference compounds determined in this test are shown in Table 2.

C=CCCCCCCCCC(=O)N1CCN(c2cc(N3CCCC3)nc(N3CCCC3)n2)CC1 [Example 1, 1-(10-Undecenoyl)-4-[2,6-di(1-pyrrolidinyl)-4-pyrimidinyl]piperazine]
inhibition in vivo at 25 mg/kg [1]: 55%
IC50 [2]: 30 µM
Improvement (in the neurological state) (acute brain injury; 10 mg/kg): 68%
death of treated animals (rats): did not provoke death of any of the treated animals
LD50 (acute toxicity in rats): > 1000 mg/kg

c1ccc(C(c2ccccc2)(c2ccccc2)N2CCN(c3cc(N4CCCC4)nc(N4CCCC4)n3)CC2)cc1 [Example 10]
inhibition in vivo at 25 mg/kg [1]: 56%
death of treated animals (rats): did not provoke death of any of the treated animals
LD50 (acute toxicity in rats): > 1000 mg/kg

OC(COc1ccc2ccccc2c1)CN1CCCN(c2cc(N3CCCC3)nc(N3CCCC3)n2)CC1 (stereo not shown) [Example 27]
inhibition in vivo at 25 mg/kg [1]: 60%
IC50 [3]: 22 µM
IC50 [2]: 8 µM
Improvement (in the neurological state) (acute brain injury; 20 mg/kg): 82%
death of treated animals (rats): did not provoke death of any of the treated animals
LD50 (acute toxicity in rats): > 1000 mg/kg

Nc1cc(N2CCN(CC(O)COc3ccc4c(c3)CCCC4=O)CC2)nc(N)n1 (stereo not shown) [Example 28]
inhibition in vivo at 25 mg/kg [1]: 64%
death of treated animals (rats): did not provoke death of any of the treated animals
LD50 (acute toxicity in rats): > 1000 mg/kg

Nc1cc(N2CCN(C(=O)COc3ccc4ccccc4c3)CC2)nc(N)n1 [Example 34]
inhibition in vivo at 25 mg/kg [1]: 69%
death of treated animals (rats): did not provoke death of any of the treated animals
LD50 (acute toxicity in rats): > 1000 mg/kg

Nc1nc(N)c2nc(-c3ccc(OCC(O)CN4CCNCC4)cc3)c(N)nc2n1 (stereo not shown) [Example 50, 6-[4-[2-Hydroxy-3-(1-piperazinyl)propoxy]phenyl]-2,4,7-triamino-pteridine]
inhibition in vivo at 25 mg/kg [1]: 78%
Improvement (in the neurological state) (acute brain injury; 20 mg/kg): 93%
death of treated animals (rats): did not provoke death of any of the treated animals
LD50 (acute toxicity in rats): > 1000 mg/kg
IC50 [4]: 15 µM

From patent US5380724A, “Piperazine and homopiperazine derivatives, pharmaceutical compositions containing them and process for preparing same” (Gyogyszerkutato Intezet KFT, priority 1992, dated 1995)
